Read-outs that look alike come from different tables or passages of the source. Square brackets hold non-standard residues; d marks the D form. Peptide text beside a SMILES is read from it. hArg = N=C(N)NCCCC[C@H](N)C(=O)O; Nle = CCCC[C@H](N)C(=O)O; Aib = CC(C)(N)C(=O)O
What was measured:
[1] = biological target: T1, ROS 17/2.8 cells (endogenous rat PTHR) (Rattus norvegicus, UniProt P25961); test: Delayed cAMP response in ROS 17/2.8 cells; assay type: cell-based
T1 construct: the rat osteoblastic cell line ROS17/2.8, which endogenously expresses the rat PTHR; endogenous in cells; host or cells: ROS 17/2.8 rat osteosarcoma cells (membranes or intact cells)
T1 sequence (P25961 27-591): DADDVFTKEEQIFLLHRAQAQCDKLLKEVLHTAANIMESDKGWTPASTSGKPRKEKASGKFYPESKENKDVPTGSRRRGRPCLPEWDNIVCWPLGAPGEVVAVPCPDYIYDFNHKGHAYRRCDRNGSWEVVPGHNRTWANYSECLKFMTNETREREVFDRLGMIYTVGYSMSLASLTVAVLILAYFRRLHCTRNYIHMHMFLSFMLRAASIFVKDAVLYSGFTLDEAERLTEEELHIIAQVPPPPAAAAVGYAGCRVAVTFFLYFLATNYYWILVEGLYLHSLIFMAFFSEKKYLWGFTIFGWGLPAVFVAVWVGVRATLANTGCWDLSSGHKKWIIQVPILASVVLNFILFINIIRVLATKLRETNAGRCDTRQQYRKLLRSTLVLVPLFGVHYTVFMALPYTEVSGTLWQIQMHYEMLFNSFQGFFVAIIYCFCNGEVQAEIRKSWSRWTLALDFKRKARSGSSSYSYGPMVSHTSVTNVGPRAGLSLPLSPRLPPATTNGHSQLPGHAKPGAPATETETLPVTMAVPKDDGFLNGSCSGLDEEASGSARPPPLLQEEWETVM
Procedure: The analogs used were [E^19],Mc-hPTH(1-34)OH (SEQ ID NO:21) and [A^23,E^19],Mc-hPTH(1-34)OH (SEQ ID NO:28) (Mc=Ala^1,3,12,Gln^10,Arg^11,Trp^14, Arg^19).
The data in FIG. 21B are expressed as a percent of the maximum response observed for each ligand, determined by incubating the cells with ligand in the presence of IBMX for 10 minutes (no ligand wash-out). These values were 67±6; 68±3; and 71±1 pmole/well, respectively. The basal (vehicle) cAMP value was 3.7±0.4 pmole/well.
Following treatment of cells with a ligand, the intracellular cAMP levels were measured by radioimmuno assay, as described (Shimizu et al., J. Biol. Chem. 276:49003-49012 (2001)). The capacities of ligands to produce a delayed cAMP response in cells after a brief exposure to the ligand was assessed as follows. […]

[2] = biological target: T2, hPTH1R (R0 form of the human PTH receptor) (Homo sapiens, UniProt Q03431); test: R0 memb: hPTH1R*PTH( 1-34)+GTPgS
T2 construct: expressed in transfected cells; host or cells: COS-7, transient (Fugene-6)

[3] = Serum and urinary calcium and phosphate in TPTX rats; assay type: in vivo
Procedure: Five-week-old male Crl:CD(SD) rats were obtained from Charles River Laboratories Japan, Inc. (Kanagawa, Japan) and acclimated for 1 week under standard laboratory conditions at 20-26° C. and 35-75% humidity. The rats received free access to tap water and standard rodent chow (CE-2) containing 1.1% calcium, 1.0% phosphate and 250 IU/100 g of vitamin D3 (Clea Japan, Inc., Shizuoka, Japan).
Thyroparathyroidectomy (TPTX) was performed on six-week-old rats. TPTX rats were selected for use based on serum ionized calcium (iCa) levels (<1.0 mM) in samples taken from tail vein bleeding at 24 hours or […] after the operation using the electrode method. The TPTX rats were divided into six groups of five animals based on iCa levels at 48 hours after the operation. TPTX-vehicle group intravenously received the vehicle alone (10 mM acetic acid solution) at a dose of 1 ml/kg body weight administered to the tail vein.
Blood was obtained from the tail vein for detecting iCa at 1, 2, 4, 6, and 24 hours after each injection. Ionized calcium levels were determined by the electrode method using an autoanalyzer (M-634, Chiba Corning Diagnostics Co. Ltd., Tokyo, Japan).
We also studied the effects of the M-PTH(1-14)/PTHrP(15-36) hybrid peptide (SP-PTH) on serum and urinary calcium and phosphate.

[4] = Calcemic action in normal rats (blood ionized calcium); assay type: in vivo; settings: for calcemic action (blood ionized calcium), in words: normal rats, i.v.
Procedure: Binding to the rat PTHR was also measured in vitro.
Concentration of peptides in stock solution were adjusted by dilution with 25 mmol/L phosphate-citrate buffer/100 mmol/L NaCl/0.05% Tween 80 (pH. 5.0) (PC-buffer). All peptides were allowed to stand on ice immediately before administration.
Female SD-IGS rat at 8 weeks of age (Charles River Japan, Inc.) were measured for their body weight. Blood was collected by tail vein into heparinized capillary tubes and measured for baseline levels of blood ionized calcium and pH using Ca^++/pH analyzer (Model 634/Bayer Medical Ltd.) to give the corrected level of ionized calcium at pH 7.4 for each sample. Rats received intravenous administration of each peptides at a dose of 1 ml/kg. Peptides were administered to groups of 6 rats each respectively. At 1, 2, 4, or 6 hours after administration, blood was collected by tail vein to monitor the time course of corrected blood ionized calcium levels. The time course of changes in corrected ionized calcium levels, compared to vehicle, and are expressed as means+/−standard error.

[5] = biological target: hPTH1R (RG form of the human PTH receptor); test: RG memb: hPTH1R+dnGS *M-PTH(1-15)
hPTHR = biological target: T3, hPTHR (Homo sapiens, UniProt Q03431); test: Delayed cAMP response after ligand wash-out in HKRK-B64 cells; assay type: cell-based; design: expressed in transfected cells; settings: HKRK-B64, at two hours (so in the source); read-out: cAMP response after wash-out, % of maximum response
T3 sequence (Q03431 27-593): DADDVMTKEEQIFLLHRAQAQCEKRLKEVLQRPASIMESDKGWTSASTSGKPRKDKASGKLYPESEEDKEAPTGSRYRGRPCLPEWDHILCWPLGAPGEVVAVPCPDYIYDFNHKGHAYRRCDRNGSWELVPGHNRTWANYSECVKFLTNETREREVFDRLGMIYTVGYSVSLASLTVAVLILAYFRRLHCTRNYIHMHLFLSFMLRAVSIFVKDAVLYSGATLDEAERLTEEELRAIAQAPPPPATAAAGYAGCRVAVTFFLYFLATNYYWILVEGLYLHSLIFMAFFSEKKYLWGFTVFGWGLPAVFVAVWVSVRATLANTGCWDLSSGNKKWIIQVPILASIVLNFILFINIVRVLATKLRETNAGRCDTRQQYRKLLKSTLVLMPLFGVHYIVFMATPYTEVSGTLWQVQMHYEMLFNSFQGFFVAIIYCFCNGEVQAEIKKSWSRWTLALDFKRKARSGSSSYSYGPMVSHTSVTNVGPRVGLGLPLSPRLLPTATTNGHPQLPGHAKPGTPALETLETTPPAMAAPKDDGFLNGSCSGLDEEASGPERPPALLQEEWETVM
Procedure: The cells were pre-treated for 10 minutes with either buffer alone (basal) or buffer containing ligand (100 nM); at t=0, the cells were washed, incubated in buffer for the times indicated (wash-out phase), treated with 3-isobutyl-1-methylxanthine (IBMX) for five minutes, and then assessed for intracellular cAMP. […] The cAMP level in cells treated with IBMX in the absence of ligand was 2.0±0.3 pmole/well. Data are means (±s.e.m.) of three experiments, each performed in duplicate. […] Analogs were similarly assessed in HKRK-B64 cells (90,000 hPTHRs/cell) at a single time-point, 60 minutes after ligand wash-out (FIG. 5B). For each peptide, the data are expressed as a percentile of the maximum cAMP responses (indicated in side panel) produced in cells treated concomitantly with that ligand and IBMX for 10 minutes and omitting the wash-out phase. […] Data are means (±s.e.m) of four experiments, each performed in triplicate.
The capacity of the ligands to produce sustained (or delayed) cAMP signaling responses was further examined in HKRK-B64 cells, which express the hPTHR at a more physiological level than do HKRK-B7 cells (90,000 per cell vs. 950,000/cell).
The capacities of ligands to produce a delayed cAMP response in cells after a brief exposure to the ligand was assessed as follows. The cells in 24-well plates were rinsed in binding buffer (50 mM Tris-HCl, pH 7.7, 100 mM NaCl, 5 mM KCl, 2 mM CaCl2, 5% heat-inactivated horse serum, 0.5% heat-inactivated fetal bovine serum) and then incubated in binding buffer with or without a peptide ligand (1×10^−7 or 3×10^−7 M) for 10 minutes at room temperature; the buffer was then removed, the cells were washed three times with binding buffer, incubated further in binding buffer for varying times (1 to 120 minutes); the buffer was then replaced by binding buffer containing IBMX (2 mM), and after an additional five minute incubation, the intracellular cAMP was quantified.

[6] = biological target: T4, human PTHR, G protein-coupled conformation (RG) (Homo sapiens, UniProt Q03431); test: Competition binding to RG conformation of hPTHR (COS-7 membranes, GαsND, 125I-[Aib1,3,M]PTH(1-15) tracer); settings: Table 5; read-out: IC50 RG, ^125I-PTH(1-15) + GsND
T4 construct: expressed in transfected cells; host or cells: COS-7, transient (Fugene-6); membranes
T4 sequence (Q03431 27-593): T3 sequence (Q03431 27-593)

[7] = test system: PTHR-CFPIC3/YFPCT (PTHR-cam); test: FRET analysis of ligand binding/receptor activation in HEK-293 cells; assay type: cell-based, human
Source text: HEK-293 cells stably transfected with a PTHR construct (PTHR-cam) containing cyan fluorescent protein (CFP) in the third intracellular loop and yellow fluorescent protein (YFP) in the carboxy-terminal tail, were used to assess the kinetics of ligand binding to, and dissociation from the PTHR. With PTHR-cam, excitation of the CFP with ultraviolet light (λexc=436 nm) produces an intramolecular FRET to the YFP, which is observable as an increase in light emission from YFP (λemm=535 nm) and a decrease in light emission from CFP λemm=480 nm). This FRET signal occurs in the ground-state receptor and decreases upon agonist binding. […] Data are from a single experiment, and identical results were obtained in at least three others.
The approach used exploits an intramolecular FRET signal that occurs in a human PTHR construct, PTHR-CFPIC3/YFPCT (formerly called PTHR-cam). This construct contains cyan-fluorescent protein (CFP) in the third intracellular loop and yellow-fluorescent protein (YFP) in the carboxy-terminal tail. A FRET signal is produced by PTHR-CFPIC3/YFPCT in the basal state, and this signal diminishes upon agonist binding, likely due to conformational change that occurs upon activation.
HEK-293 cells stably expressing HEK-PTHR-CFPIC3/YFPCT (previously called HEK-PTHR-Cam cells (Vilardaga et al., Nat. Biotechnol. 21:807-812 (2003)) were grown on glass coverslips and processed for FRET analysis as described. With these cells, excitation of the CFP (donor) in PTHR-CFPIC3/YFPCT with ultraviolet light (λmax.ex.=436 nm; λmax.em.=480 nm) produces an intramolecular FRET to the YFP (acceptor), resulting in emission from that YFP (λmax.ex.=480 nm, λmax.em.=535 nm). This FRET response is observable as a decrease in intensity of CFP light emission at 480 nm, and an increase in intensity of YFP light emission at 535 nm. The FRET signal is produced by PTHR-CFPIC3/YFPCT in the ground-state receptor and decreases upon binding of an agonist. […] Fluorescence was monitored using a Zeiss inverted microscope equipped with a 100× objective and a dual emission photometric system (Til Photonics), coupled to an avalanche photodiode detection system and an analog-digital converter (Axon Instruments). The FRET signal detected upon excitation at 436 nm was calculated as the normalized FRET ratio: FYFP(535 nm)/FCFP(480 nm) where FYFP(535 nm) is the emission at 535 nm, corrected for spillover of the CFP signal into the YFP channel, and FCFP(480 nm) is the emission at 480 nm, corrected for spillover (minimal) of the YFP emission into the CFP channel. Changes in fluorescence emissions due to photo-bleaching were subtracted.

[8] = biological target: T5, human PTHR, G protein-uncoupled conformation (R^0) (Homo sapiens, UniProt Q03431); test: Competition binding to R0 conformation of hPTHR (COS-7 membranes, GTPγS, 125I-PTH(1-34) tracer)
T5 construct: expressed in transfected cells; host or cells: COS-7, transient (Fugene-6)
T5 sequence (Q03431 27-593): T3 sequence (Q03431 27-593)
Method in brief: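 Bound versus free radioligand was separated by vacuum filtration after 90 min incubation of COS-7 hPTHR membranes (20-100 μg/mL) with tracer and competing peptides. Non-specific binding came from a saturating unlabeled analog.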

| Compound | duration of cAMP signaling, in words [1] | IC50 [2] [nM] | duration of calcemic / sCa and sPi effect, in words [3] | duration of calcemic / sCa and sPi effect, in words ([3]; listed as SP-PTH) | serum calcium (sCa) and serum phosphorus (sPi), in words ([3]; single i.v. 1.25 nmol/kg) | urinary calcium 0-6 hours, in words ([3]; single i.v. 1.25 nmol/kg) | urinary phosphate 0-6 hours, in words ([3]; single i.v. 1.25 nmol/kg) | calcemic action compared with control peptides, in words ([4]; normal and TPTX rats) | calcemic action (blood ionized calcium), in words [4] | IC50 [5] [nM] | Emax (hPTHR) [%] | IC50 [6] [nM] | FRET signal after exchange to ligand-free buffer, in words [7] | R0:RG ([8]; Table 5, fold weaker affinity for R0 than RG) | fold reduction of binding affinity for R^0 by Trp^23→Ala substitution ([8]; versus [E^19,Mc]PTH(1-34)) [fold] |
| --- | --- | --- | --- | --- | --- | --- | --- | --- | --- | --- | --- | --- | --- | --- | --- |
| CC[C@H](C)[C@H](NC(=O)[C@H](CCC(=O)O)NC(=O)[C@H](C)NC(=O)[C@@H](NC(=O)[C@H](Cc1c[nH]cn1)NC(=O)[C@@H](NC(=O)[C@H](CCC(=O)O)NC(=O)[C@H](C)NC(=O)[C@@H](NC(=O)[C@H](CC(C)C)NC(=O)[C@H](Cc1c[nH]cn1)NC(=O)[C@H](Cc1c[nH]cn1)NC(=O)[C@H](CC(C)C)NC(=O)[C@H](Cc1ccccc1)NC(=O)[C@H](Cc1ccccc1)NC(=O)[C@H](CCCNC(=N)N)NC(=O)[C@H](CCCNC(=N)N)NC(=O)[C@H](CCCNC(=N)N)NC(=O)[C@H](CC(C)C)NC(=O)[C@H](CC(=O)O)NC(=O)[C@H](CCC(N)=O)NC(=O)[C@@H](NC(=O)[C@H](Cc1c[nH]c2ccccc12)NC(=O)[C@H](CCCCN)NC(=O)[C@H](C)NC(=O)[C@H](CCCNC(=N)N)NC(=O)[C@H](CCC(N)=O)NC(=O)[C@H](Cc1c[nH]cn1)NC(=O)[C@H](CCSC)NC(=O)[C@H](CC(C)C)NC(=O)[C@H](CCC(N)=O)NC(=O)[C@@H](NC(=O)[C@H](CCC(=O)O)NC(=O)[C@H](C)NC(=O)[C@@H](NC(=O)[C@H](C)N)C(C)C)[C@@H](C)CC)[C@@H](C)CC)[C@@H](C)CC)[C@@H](C)CC)[C@@H](C)O)C(=O)O [Mc-PTH(1-14)/PTHrP(15-36)] (H-AVAEIQLMHQRAKWIQDLRRRFFLHHLIAEIHTAEI-OH) | prolonged cAMP signaling | 2.7 | prolonged calcemic effects | maintained for 24 hrs | increased sCa and decreased sPi to normal levels within 6 hrs | decreased urinary calcium | increased urinary phosphate level | higher calcemic actions than did PTH(1-34) | Prolonged calcemic effects | 0.67 | – | – | – | – | – |
| CCCC[C@H](NC(=O)[C@H](CC(C)C)NC(=O)[C@H](CCC(N)=O)NC(=O)[C@@H](NC(=O)[C@H](CCC(=O)O)NC(=O)C(C)(C)NC(=O)[C@@H](NC(=O)C(C)(C)N)C(C)C)[C@@H](C)CC)C(=O)N[C@@H](Cc1c[nH]cn1)C(=O)N[C@@H](CCC(N)=O)C(=O)N[C@@H](CCCCNC(=N)N)C(=O)N[C@@H](C)C(=O)N[C@@H](CCCCN)C(=O)N[C@@H](Cc1c[nH]c2ccccc12)C(=O)N[C@@H](Cc1ccc(O)cc1)C(N)=O [[Aib^1,3,M]rPTH(1-15)NH2, [Aib^1,3,Nle^8,Gln^10,homoarginine^11,Ala^12,Trp^14,Tyr^15]rPTH(1-15)NH2, reference compound] (H-[Aib]V[Aib]EIQL[Nle]HQ[hArg]AKWY-NH2; N-terminus assumed) | – | – | – | – | – | – | – | – | – | – | 23 | 0.74 ± 0.18 | began to decay immediately upon exchange of the buffer to a ligand-free one | 1,397 | – |
| AVAEIQLMHQRAKWLNSMERVEALRKKLQDVHNF [[A^23,E^19],Mc-hPTH(1-34)OH] | reduced duration of cAMP signaling in cells | – | – | – | – | – | – | – | reduced the hypercalcemic effect | – | – | – | – | – | 10 |

From US9057727B2, “Screening methods using G-protein coupled receptors and related compositions” (The General Hospital Corporation, priority 2007, dated 2015)
